Measurements as given in patent US8404442B2, “Methods for identification of bone anabolic agents” (New York University, priority 2009, dated 2013).

How the values were obtained:
[1] = system: Sox2-depleted osteoblasts; assay: Rescue of colony forming ability of Sox2-depleted osteoblasts; format: cell-based, mouse; conditions: 10 μM SB431542
Experimental: For colony formation assay, 0.1×10^6 cells were plated per well in a cluster-6 well plate for 24 hours. The next day, the cells were infected with a retrovirus either encoding eGFP (MSCV-eGFP) or CRE (MSCV-CRE-eGFP) at an MOI of 10, in the presence of 8 μg/ml polybrene. Twenty-four (24) hours after infection, fresh medium was added to the plate and the cells were incubated for an additional 48 hours (72 hours total from the start of infection). The infected cells were then trypsinized and re-plated at a density of 1000 cells/well in a cluster-6 well plate. The plated were incubated for 7-10 days. Green colonies were visualized and counted under a fluorescence microscope. Colonies were fixed in 20% methanol for 15 minutes at room temperature, and counted after staining with 0.5% crystal violet in 20% methanol. We have developed a 96-well format, cell-based screen using two Sox2 foxed cell lines (F/F and F/-). […] The CellTiter-Blue® Cell Viability Assay is a fluorescence-based assay for measuring cell viability, and has an excellent Z′ factor^1. […] After one hour of incubation with the reagent, fluorescence was read using a Wallac Plate Reader (Perkinelmer, Waltham, Mass.). Z′ factor and z score for each plate was calculated for each cell line at different cell plating concentrations as described (28, 29). […]

iPSCs = conditions: refs (7,32); cited from earlier work

In the case of NC(=O)c1ccc(-c2nc(-c3ccc4c(c3)OCO4)c(-c3ccccn3)[nH]2)cc1 [SB431542], the “rescue of loss of colony forming ability” value [1] is given as “able to rescue to loss of colony forming ability” and the “bypass of the requirement of Sox2 in reprogramming” value (iPSCs) is given as “bypass the requirement of Sox2 in the reprogramming of iPSCs”.
